The values that follow come from US9102670B2, “Pyrido-, pyrazo- and pyrimido-pyrimidine derivatives as mTOR inhibitors” (KuDOS Pharmaceuticals Limited, priority 2006, dated 2015).

One experiment relates to phosphorylation of Serine 473 in Akt. The experiment is described as follows: In Vitro Phospho-Ser473 Akt Assay in MDA-MB-468 cells. It is filed as cell-based. Particulars: Homo sapiens, MDA-MB-468, read-out: IC50 values against mTOR, phospho-Ser473 Akt assay, MDA-MB-468 cells.
For `CNCc1cccc(-c2ccc3c(N4CCOC[C@@H]4C)nc(N4CCOC[C@@H]4C)nc3n2)c1` [Example 4l], the IC50 (commonly the concentration that gives 50% inhibition) was under 100 nM.

Consider `COC[C@@H](C)Nc1nc(N2CCOC[C@@H]2C)c2ccc(-c3ccc(OC)c(CO)c3)nc2n1` [Example 18bo], for which the IC50 is under 100 nM. Same read-out and setting: next, `C[C@H]1COCCN1c1nc(N2CCOC[C@@H]2C)c2ccc(-c3cccc(CNC4CCOCC4)c3)nc2n1` [Example 4m]: under 100 nM; `COc1ccc(-c2ccc3c(N4CCOC[C@@H]4C)nc(N4CCC(c5ccc(Cl)cc5)CC4)nc3n2)cc1CO` [Example 18aq]: under 300 nM; `COCCNCc1cc(-c2ccc3c(N4CCOC[C@@H]4C)nc(N4CCOC[C@@H]4C)nc3n2)ccc1OC` [Example 4bb]: under 100 nM. On the same count and under the same terms, with `COc1ccc(-c2ccc3c(N4CCOC[C@@H]4C)nc(N4CCOc5ccccc54)nc3n2)cc1CO` [Example 18bl] the figure was under 300 nM; with `COc1ccc(-c2ccc3c(N4CCOC[C@@H]4C)nc(N4CCC[C@@H](O)C4)nc3n2)cc1CO` [Example 18bk], under 100 nM.

Consider `COc1ccc(-c2ccc3c(N4CCOC[C@@H]4C)nc(N4CCC(C)CC4)nc3n2)cc1CO` [Example 18t], for which the IC50 is under 100 nM. Still for that read-out and setting: with `COc1ccc(-c2ccc3c(N4CCOC[C@@H]4C)nc(N4CCC(C#N)(c5ccccc5)CC4)nc3n2)cc1CO` [Example 18an] the figure was under 100 nM; with `C[C@H]1COCCN1c1nc(N2CCOCC2)nc2nc(-c3ccc(Cl)cc3)ccc12` [Example 18di], under 300 nM; with `COc1ccc(-c2ccc3c(N4CCOC[C@@H]4C)nc(-c4cccc(CO)c4)nc3n2)cc1CO` [Example 19c], under 300 nM. On the same count and under the same terms, next, `COc1ccc(-c2ccc3c(N4CCOC[C@@H]4C)nc(N4CCOC[C@@H]4C)nc3n2)cc1CNCCC(C)C` [Example 4at]: under 100 nM; `COc1ccc(-c2ccc3c(N4CCOC[C@@H]4C)nc(N4CCOC[C@@H]4C)nc3n2)cc1F` [Example 1bs]: under 100 nM.

On to `COc1ccc(-c2ccc3c(N4CCOC[C@@H]4C)nc(-n4cc(Br)nc4C)nc3n2)cc1CO` [Example 18bc], for which the IC50 is under 300 nM. On the same count and under the same terms, with `C[C@@H]1CN(c2nc(N3CCOC[C@@H]3C)c3ccc(-c4ccc(O)cc4)nc3n2)C[C@H](C)O1` [Example 1cg] the figure was under 100 nM; with `CON(C)C(=O)c1cc(-c2ccc3c(N4CCOC[C@@H]4C)nc(N4CCOC[C@@H]4C)nc3n2)ccc1F` [Example 3y], under 100 nM. Same read-out and setting: next, `C[C@H]1COCCN1c1nc(N2CCOC[C@@H]2C)c2ccc(-c3cccc(CNCCO)c3)nc2n1` [Example 4h]: under 100 nM; `COc1ccc(-c2ccc3c(N4CCOC[C@@H]4C)nc(NCCF)nc3n2)cc1CO` [Example 18bt]: under 300 nM; `C[C@H]1COCCN1c1nc(N2CCOC[C@@H]2C)c2ccc(-c3ccc(CNC4CCOCC4)cc3)nc2n1` [Example 4e]: under 100 nM. The same measure, in the same setting: with `COc1ccc(-c2ccc3c(N4CCOC[C@@H]4C)nc(N4CCOC[C@@H]4C)nc3n2)cc1CNCc1cccs1` [Example 4ap] the figure was under 300 nM; with `C[C@H]1COCCN1c1nc(N2CCOC[C@@H]2C)c2ccc(-c3ccc(F)cc3)nc2n1` [Example 1aa], under 100 nM; with `COc1ccc(-c2ccc3c(N4CCOC[C@@H]4C)nc(N4CCCC(N)C4)nc3n2)cc1CO` (stereo partly drawn) [Example 18au], under 100 nM. On to `CNC(=O)c1cc(-c2ccc3c(N4CCOC[C@@H]4C)nc(N4CCOC[C@@H]4C)nc3n2)ccc1OC` [Example 3ad], for which the IC50 was under 100 nM.

For `C[C@H]1COCCN1c1nc(N2CCOC[C@@H]2C)c2ccc(-c3ccoc3)nc2n1` [Example 1bv], the IC50 is under 100 nM.

On to `C[C@H]1COCCN1c1nc(N2CCOC[C@@H]2C)c2ccc(-c3ccc(F)c(CNC(=O)C4CC4)c3)nc2n1` [Example 5v], for which the IC50 is under 300 nM. Still for that read-out and setting: next, `COc1ccc(-c2ccc3c(N4CCOC[C@@H]4C)nc(-n4cnc(Br)c4)nc3n2)cc1CO` [Example 18bb]: under 300 nM; `C[C@@H]1CN(c2nc(N3CCOC[C@@H]3C)c3ccc(-c4cccc(CO)c4)nc3n2)C[C@H](C)O1` [Example 1bx]: under 300 nM. The same measure, in the same setting: with `C[C@H]1COCCN1c1nc(N2CCOC[C@@H]2C)c2ccc(-c3ccc(F)c(CN)c3)nc2n1` [Example 4u] the figure was under 100 nM; with `CNC(=O)c1cc(-c2ccc3c(N4CCOC[C@@H]4C)nc(N4CCOC[C@@H]4C)nc3n2)ccc1F` [Example 1ae], under 100 nM; with `C[C@H]1COCCN1c1nc(N2CCOC[C@@H]2C)c2ccc(-c3ccc(N)nc3)nc2n1` [Example 1u], under 100 nM. In the case of `COCCNCc1cc(-c2ccc3c(N4CCOC[C@@H]4C)nc(N4CCOC[C@@H]4C)nc3n2)ccc1F` [Example 4aa], the IC50 is under 300 nM. On the same count and under the same terms, with `COc1ccc(-c2ccc3c(N4CCOC[C@@H]4C)nc(N4CCOC[C@@H]4C)nc3n2)cc1CNC1CCC(C)CC1` (stereo partly drawn) [Example 4bc] the figure was under 100 nM; with `COc1ccc(-c2ccc3c(N4CCOC[C@@H]4C)nc(N4CCOCC4)nc3n2)cc1CO` [Example 1l], under 100 nM; with `C[C@H]1COCCN1c1nc(N2CCOC[C@@H]2C)c2ccc(-c3ccc(F)c(CNC4CCOCC4)c3)nc2n1` [Example 4y], under 100 nM. Still for that read-out and setting: with `COc1ccc(-c2ccc3c(N4CCOC[C@@H]4C)nc(N4CC[C@H](O)C4)nc3n2)cc1CO` [Example 18ab] the figure was under 300 nM. Same read-out and setting: next, `COc1ccc(-c2ccc3c(N4CCOC[C@@H]4C)nc(N4CCOC[C@@H]4C)nc3n2)cc1CNC(C)C` [Example 4am]: under 100 nM; `C[C@H]1COCCN1c1nc(N2CCOC[C@@H]2C)c2ccc(-c3ccc(F)c(CNCCO)c3)nc2n1` [Example 4ac]: under 100 nM; `COc1ccc(-c2ccc3c(N4CCOC[C@@H]4C)nc(N4CCCC4)nc3n2)cc1CO` [Example 18q]: under 100 nM. With `C[C@H]1COCCN1c1nc(N2CCOC[C@@H]2C)c2ccc(-c3cccc(C(=O)Nc4cc[nH]n4)c3)nc2n1` [Example 3a], the half-maximal inhibitory concentration (IC50) was under 300 nM.

In the case of `COc1ccc(-c2ccc3c(N4CCOC[C@@H]4C)nc(-c4cccc(C=O)c4)nc3n2)cc1CO` [Example 19b], the IC50 was under 300 nM.

Staying with this experiment, now noted: Homo sapiens, MDA-MB-468, read-out: IC50 values against mTOR, phospho-Ser473 Akt assay, MDA-MB-468 cells, upper bound.
For the molecule `COc1ccc(-c2ccc3c(N4CCOC[C@@H]4C)nc(-c4cccc(CN)c4)nc3n2)cc1CO` [Example 19e], the IC50 is under 1000 nM. `COc1ccc(-c2ccc3c(N4CCOC[C@@H]4C)nc(N4CCCC(c5ccccc5)C4)nc3n2)cc1CO` (stereo partly drawn) [Example 18j]: the IC50 was under 1000 nM. On the same count and under the same terms, next, `C[C@H]1COCCN1c1nc(N2CCOC[C@@H]2C)c2ccc(-c3ccc(F)c(CNCCF)c3)nc2n1` [Example 4ab]: under 1000 nM. Still for that read-out and setting: with `C[C@H]1COCCN1c1nc(N2CCOC[C@@H]2C)c2ccc(-c3cccc(CS(C)(=O)=O)c3)nc2n1` [Example 4t] the figure was under 1000 nM. The same measure, in the same setting: with `C[C@H]1COCCN1c1nc(N2CCOC[C@@H]2C)c2ccc(-c3ccc(F)c(CNC(=O)C4CCC4)c3)nc2n1` [Example 5x] the figure was under 1000 nM; with `COCCN(C)Cc1cc(-c2ccc3c(N4CCOC[C@@H]4C)nc(N4CCOC[C@@H]4C)nc3n2)ccc1F` [Example 4aj], under 1000 nM. With `C[C@H]1COCCN1c1nc(N2CCOC[C@@H]2C)c2ccc(-c3cccc(C(=O)N4CC[C@@H](O)C4)c3)nc2n1` [Example 3g], the IC50 was under 1000 nM. For `C[C@H]1COCCN1c1nc(-c2ccncc2)nc2nc(-c3cccc(CO)c3)ccc12` [Example 19q], the IC50 is under 1000 nM.
